Where two headings read alike, the source gives them in different places. Where a SMILES comes first, the peptide text is derived from it.
Key:
HELA cells (Acc57) = experiment: Cytotoxicity assay (MTT reduction), HELA cells; format: cell-based; conditions: Hela cells
How it was run: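 HeLa cells were grown for 24 h, then exposed to peptides at 12.5, 25 and 50 μM in triplicate for 48 h at 37 °C. MTT reduction was read at 595 nm and growth % calculated relative to time-zero wells. LC50 interpolated by linear trend at −50% growth, GI50 at 50%.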

[1] = system: human red blood cells (hRBC); experiment: Hemolysis
[2] = molecular target: Trypsin, from human pancreas (Homo sapiens, UniProt P07477); experiment: Enzymatic assay, trypsin; conditions: at 100 μM
Chymase, from human skin = molecular target: T1, Chymase, from human skin (Homo sapiens, UniProt P23946); experiment: Enzymatic assay, chymase
T1 sequence (P23946 22-247): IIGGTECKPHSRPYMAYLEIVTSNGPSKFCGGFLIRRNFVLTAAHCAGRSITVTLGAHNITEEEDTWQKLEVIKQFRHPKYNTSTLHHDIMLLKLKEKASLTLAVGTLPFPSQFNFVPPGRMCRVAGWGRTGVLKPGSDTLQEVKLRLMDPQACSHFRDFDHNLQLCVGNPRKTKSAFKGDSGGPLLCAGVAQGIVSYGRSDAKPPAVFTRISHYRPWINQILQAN

[3] = molecular target: T2, Elastase from human neutrophils (Homo sapiens, UniProt P08246); experiment: Enzymatic assay, elastase
T2 sequence (P08246 30-267): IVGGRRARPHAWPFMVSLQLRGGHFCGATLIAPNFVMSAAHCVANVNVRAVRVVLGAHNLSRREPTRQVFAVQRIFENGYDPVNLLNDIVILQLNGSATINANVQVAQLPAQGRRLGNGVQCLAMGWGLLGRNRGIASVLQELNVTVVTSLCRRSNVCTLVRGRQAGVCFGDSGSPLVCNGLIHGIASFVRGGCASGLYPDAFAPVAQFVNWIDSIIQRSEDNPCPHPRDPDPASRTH

[4] = molecular target: Thrombin, from Human Plasma (Homo sapiens, UniProt P00734); experiment: Enzymatic assay, thrombin
[5] = system: Tryptase, from human lung; experiment: Enzymatic assay, tryptase; conditions: at 100 μM
[6] = molecular target: Urokinase from human urine (Homo sapiens, UniProt P00749); experiment: Enzymatic assay, urokinase
[7] = molecular target: T3, CathepsinG, from human neutrophils (Homo sapiens, UniProt P08311); experiment: Enzymatic assay, cathepsin G
T3 sequence (P08311 21-244): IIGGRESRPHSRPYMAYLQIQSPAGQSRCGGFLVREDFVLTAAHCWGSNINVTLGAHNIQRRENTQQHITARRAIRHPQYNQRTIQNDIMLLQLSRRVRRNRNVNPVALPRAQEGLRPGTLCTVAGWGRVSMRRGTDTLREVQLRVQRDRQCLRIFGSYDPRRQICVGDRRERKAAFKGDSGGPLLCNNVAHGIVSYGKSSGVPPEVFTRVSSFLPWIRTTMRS

[8] = molecular target: Chymotrypsin, from human pancreas (Homo sapiens, UniProt P17538); experiment: Enzymatic assay, chymotrypsin; conditions: at 100 μM
[9] = molecular target: Coagulation Factor Xa, from uman plasma (Homo sapiens, UniProt P00742); experiment: Enzymatic assay, coagulation factor Xa
Coagulation Factor Xa, from uman plasma, sequence (P00742 235-488 limits assumed): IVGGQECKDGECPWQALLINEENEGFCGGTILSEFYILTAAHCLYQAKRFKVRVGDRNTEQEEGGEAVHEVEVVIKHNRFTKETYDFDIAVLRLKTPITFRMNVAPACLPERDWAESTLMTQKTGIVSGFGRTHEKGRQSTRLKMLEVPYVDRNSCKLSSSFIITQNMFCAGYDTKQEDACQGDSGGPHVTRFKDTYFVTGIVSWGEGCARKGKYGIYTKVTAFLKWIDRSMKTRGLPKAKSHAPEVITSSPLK
Coagulation Factor Xa, from uman plasma, sequence (P00742 41-179 limits assumed): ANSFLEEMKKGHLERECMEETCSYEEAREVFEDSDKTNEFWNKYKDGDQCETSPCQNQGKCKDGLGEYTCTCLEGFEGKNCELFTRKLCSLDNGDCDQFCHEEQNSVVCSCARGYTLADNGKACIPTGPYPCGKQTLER

Chymotrypsin, from human pancreas, sequence (P17538 19-263): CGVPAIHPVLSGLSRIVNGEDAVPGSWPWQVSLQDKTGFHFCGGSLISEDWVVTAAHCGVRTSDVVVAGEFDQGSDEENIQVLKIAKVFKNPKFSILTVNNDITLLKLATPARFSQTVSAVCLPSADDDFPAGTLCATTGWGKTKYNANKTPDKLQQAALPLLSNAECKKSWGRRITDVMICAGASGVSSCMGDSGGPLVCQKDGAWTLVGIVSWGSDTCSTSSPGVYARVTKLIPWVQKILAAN

Compound	Cytotoxicity LC50/GI50 Hela cells (HELA cells (Acc57))	Hemolysis at 100 μM % [1]	Trypsin at 100 μM % [2]	Chymase at 100 μM % (Chymase, from human skin)	IC50 ([3]; Elastase IC50)	Thrombin at 100 μM % [4]	Tryptase at 100 μM % [5]	Urokinase at 100 μM % [6]	IC50 ([7]; Cathepsin G IC50)	Chymotrypsin at 100 μM % [8]	FXa at 100 μM % [9]	IC50 ([3]; read-out: Elastase IC50)	IC50 ([7]; read-out: Cathepsin G IC50)
CCCC[C@@H]1NC(=O)[C@@H]2CCCN2C(=O)[C@H]2CCCN2C(=O)[C@H](Cc2ccc(O)cc2)NC(=O)[C@@H]2CSSC[C@H](NC1=O)C(=O)N[C@@H]([C@@H](C)O)C(=O)N[C@@H](CCCCN)C(=O)N[C@@H](CO)C(=O)N[C@@H](CC(=O)O)C(=O)N1CCC[C@H]1C(=O)N1CCC[C@H]1C(=O)N[C@@H]([C@@H](C)CC)C(=O)N2 [Ex. 44] (HELM PEPTIDE1{[Nle].C.T.K.S.D.P.P.I.C.Y.[dP].P}$PEPTIDE1,PEPTIDE1,2:R3-10:R3|PEPTIDE1,PEPTIDE1,1:R1-13:R2$$$V2.0)	67 µM	0.1%	100%	3%	> 10 µM	9%	50%	14%	0.031 µM	24%	9%	–	–
CC[C@H](C)[C@@H]1NC(=O)[C@@H]2CCCN2C(=O)[C@@H]2CCCN2C(=O)[C@H](CC(=O)O)NC(=O)[C@H](CO)NC(=O)[C@H](CCCCN)NC(=O)[C@H]([C@@H](C)O)NC(=O)[C@@H]2CSSC[C@H](NC1=O)C(=O)N[C@@H](CO)C(=O)N1CCC[C@@H]1C(=O)N[C@@H](CC(=O)O)C(=O)N[C@@H](Cc1ccccc1)C(=O)N2 [Ex. 47] (HELM PEPTIDE1{F.C.T.K.S.D.P.P.I.C.S.[dP].D}$PEPTIDE1,PEPTIDE1,2:R3-10:R3|PEPTIDE1,PEPTIDE1,1:R1-13:R2$$$V2.0)	100 µM	0%	87%	8.2%	> 10 µM	0%	0%	6.3%	0.064 µM	1%	9.3%	–	–
CC[C@H](C)[C@@H]1NC(=O)[C@H](C)NC(=O)[C@@H]2CCCN2C(=O)[C@H](CC(=O)O)NC(=O)[C@H](CO)NC(=O)[C@H](CCCCN)NC(=O)[C@H]([C@@H](C)O)NC(=O)[C@@H]2CSSC[C@H](NC1=O)C(=O)N[C@@H](CCCNC(=N)N)C(=O)N1CCC[C@@H]1C(=O)N1CCC[C@H]1C(=O)N[C@@H]([C@@H](C)CC)C(=O)N2 [Ex. 52] (HELM PEPTIDE1{I.C.T.K.S.D.P.A.I.C.R.[dP].P}$PEPTIDE1,PEPTIDE1,2:R3-10:R3|PEPTIDE1,PEPTIDE1,1:R1-13:R2$$$V2.0)	100 µM	0%	86%	42.3%	–	8.7%	84.2%	5.4%	–	0%	6%	> 100 µM	0.052 µM
CCCC[C@@H]1NC(=O)[C@H]([C@@H](C)O)NC(=O)[C@@H]2CSSC[C@H](NC(=O)[C@H]([C@@H](C)CC)NC(=O)[C@@H]3CCCN3C(=O)[C@@H]3CCCN3C(=O)[C@H](CC(=O)O)NC(=O)[C@H](CO)NC1=O)C(=O)N[C@@H](Cc1ccc(O)cc1)C(=O)N1CCC[C@@H]1C(=O)N1CCC[C@H]1C(=O)N[C@@H](Cc1ccccc1)C(=O)N2 [Ex. 60] (HELM PEPTIDE1{F.C.T.[Nle].S.D.P.P.I.C.Y.[dP].P}$PEPTIDE1,PEPTIDE1,2:R3-10:R3|PEPTIDE1,PEPTIDE1,1:R1-13:R2$$$V2.0)	51 µM	0%	90%	60%	–	0%	29.4%	9%	–	4%	11%	> 100 µM	0.038 µM
CCCC[C@@H]1NC(=O)[C@@H]2CCCN2C(=O)[C@@H]2CCCN2C(=O)[C@H](CC(=O)O)NC(=O)[C@H](CO)NC(=O)[C@H](CCCCN)NC(=O)[C@H]([C@@H](C)O)NC(=O)[C@@H]2CSSC[C@H](NC1=O)C(=O)N[C@@H](Cc1ccc(O)cc1)C(=O)N1CCC[C@@H]1C(=O)N1CCC[C@H]1C(=O)N[C@@H](C1CCCCC1)C(=O)N2 [Ex. 63] (HELM PEPTIDE1{[O=C([C@@H](N[*:1])C1CCCCC1)[*:2]].C.T.K.S.D.P.P.[Nle].C.Y.[dP].P}$PEPTIDE1,PEPTIDE1,2:R3-10:R3|PEPTIDE1,PEPTIDE1,1:R1-13:R2$$$V2.0)	87 µM	0%	96%	7%	> 100 µM	1%	50%	0%	0.041 µM	11%	0%	–	–
CC[C@H](C)[C@@H]1NC(=O)[C@@H]2CCCN2C(=O)[C@@H]2CCCN2C(=O)[C@H](CC(=O)O)NC(=O)[C@H](CO)NC(=O)[C@H](CCCCN)NC(=O)[C@H]([C@@H](C)O)NC(=O)[C@@H]2CSSC[C@H](NC1=O)C(=O)N[C@@H](CO)C(=O)N1CCC[C@@H]1C(=O)N[C@@H](CCC(=O)O)C(=O)N[C@@H](Cc1ccccc1)C(=O)N2 [Ex. 64] (HELM PEPTIDE1{F.C.T.K.S.D.P.P.I.C.S.[dP].E}$PEPTIDE1,PEPTIDE1,2:R3-10:R3|PEPTIDE1,PEPTIDE1,1:R1-13:R2$$$V2.0)	59 µM	0%	87%	0%	> 100 µM	2.3%	0%	3%	0.045 µM	0%	0%	–	–
